# According to patent US4526892A, “Dimethylaminoalkyl-3-(ergoline-8'βcarbonyl)-ureas” (Farmitalia Carlo Erba, S.p.A., priority 1982, dated 1985):
# Legend:
# [1] = test system: spontaneously hypertensive male rats, strain SHR; assay: Change in heart rate (HR) in SHR rats; type: in vivo, rat
# Experimental: (§1) Four spontaneously hypertensive male rats, strain SHR, weighing 250-300 g for each group were used. The animals were treated once a day for four consecutive days. Drugs were administered by gastric gavage, suspended in 5% gum arabic (0.2 ml/100 g body weight) and blood pressure (BP) and heart rate (HR) were measured by indirected tail/cuff method (BP Recorder W+W). Blood pressure and heart rate were measured on the first and fourth days of treatment 1 hour before and 1 and 5 hours after drug administration. Hydralazine and α-methyl-Dopa were used as reference drugs.
# [2] = test system: spontaneously hypertensive male rats, strain SHR; assay: Anti-hypertensive activity: change in blood pressure (BP) in SHR rats; type: in vivo, rat
# Experimental: as §1
# prolactin secretion = assay: Anti-prolactin activity: egg-nidation inhibition in rats; type: in vivo, rat (Sprague Dawley); details: Rattus norvegicus, po, 120 h; p.o., day 5 of pregnancy; read-out: Nidation inhibition in rats ED50
# Description: The prolactin secretion inhibitory action of the compounds has been indirectly evaluated by determining the egg-nidation inhibitory action in rats. For the ergoline derivatives this activity is considered to be correlated with the anti-prolactin activity (E. FLUCKIGER and E. DEL POZO,Handb. exp. Pharmac. 49, 615, 1978), since prolactin is the only hypophysial hormone involved in the maintenance of the first part of pregnancy in rats (W. K. MORISHIGE and I. ROTHCHILD, Endocrinology 95, 260, 1974).
# Pregnant Sprague Dawley rats weighing 200-250 g were used. The compounds to be tested, dissolved in diluted mineral acids, were administered orally to groups from six to eight rats on day 5 of pregnancy. The animals were sacrificed on day 14 and the uteri were examined. The absence of implantation sites was taken as the criterion of anti-prolactin activity. Several doses were tested for the ED50 evaluation. As reference standard Bromocriptine was used.
# [3] = 0.5 mg/kg os, 1st day, 1 hour after dosing
# [4] = 0.5 mg/kg os, 1st day, 5 hours after dosing
# [5] = 0.5 mg/kg os, 4th day, 1 hour after dosing
# [6] = 0.5 mg/kg os, 4th day, 5 hours after dosing
# [7] = 1 mg/kg os, 1st day, 1 hour after dosing
# [8] = 1 mg/kg os, 1st day, 5 hours after dosing
# [9] = 1 mg/kg os, 4th day, 1 hour after dosing
# [10] = 1 mg/kg os, 4th day, 5 hours after dosing
# [11] = os, all tested doses of the compound
# [12] = 2 mg/kg os, 1st day, 1 hour after dosing
# [13] = 2 mg/kg os, 1st day, 5 hours after dosing
# [14] = 2 mg/kg os, 4th day, 1 hour after dosing
# [15] = 2 mg/kg os, 4th day, 5 hours after dosing
# [16] = 10 mg/kg os, 1st day, 1 hour after dosing
# [17] = 10 mg/kg os, 1st day, 5 hours after dosing
# [18] = 10 mg/kg os, 4th day, 1 hour after dosing
# [19] = 10 mg/kg os, 4th day, 5 hours after dosing
# [20] = 0.1 mg/kg os, 1st day, 1 hour after dosing
# [21] = 0.1 mg/kg os, 1st day, 5 hours after dosing
# [22] = 0.1 mg/kg os, 4th day, 1 hour after dosing
# [23] = 0.1 mg/kg os, 4th day, 5 hours after dosing
# [24] = 12.5 mg/kg os, 1st day, 1 hour after dosing
# [25] = 12.5 mg/kg os, 1st day, 5 hours after dosing
# [26] = 12.5 mg/kg os, 4th day, 1 hour after dosing
# [27] = 12.5 mg/kg os, 4th day, 5 hours after dosing
# [28] = 5 mg/kg os, 1st day, 1 hour after dosing
# [29] = 5 mg/kg os, 1st day, 5 hours after dosing
# [30] = 5 mg/kg os, 4th day, 1 hour after dosing
# [31] = 5 mg/kg os, 4th day, 5 hours after dosing
compound,measurement,setting,value
"CC(C)NC(=O)N(C(=O)[C@@H]1C[C@@H]2c3cccc4[nH]cc(c34)C[C@H]2N(C)C1)C(C)C [Example 1, 1,3-diisopropyl-3-(6'-methylergoline-8'β-carbonyl)urea]",Change in HR,[1]; [3],-20 beats/minute
same,Change in HR,[1]; [4],-12 beats/minute
same,Change in HR,[1]; [5],-20 beats/minute
same,Change in HR,[1]; [6],-7 beats/minute
same,Change in HR,[1]; [7],-30 beats/minute
same,Change in HR,[1]; [8],-35 beats/minute
same,Change in HR,[1]; [9],-35 beats/minute
same,Change in HR,[1]; [10],-30 beats/minute
same,Change in BP,[2]; [3],-27 mmHg
same,Change in BP,[2]; [4],-20 mmHg
same,Change in BP,[2]; [5],-20 mmHg
same,Change in BP,[2]; [6],0 mmHg
same,Change in BP,[2]; [7],-40 mmHg
same,Change in BP,[2]; [8],-37 mmHg
same,Change in BP,[2]; [9],-40 mmHg
same,Change in BP,[2]; [10],-32 mmHg
same,Hypotensive activity vs Hydralazine,[2]; doses not stated,greater and longer lasting hypotensive activity than Hydralazine
same,Effect on BP (in words),[2]; [11],marked decrease of BP in a dose dependent manner
"CO[C@]12C[C@@H](C(=O)N(C(=O)NC(C)(C)C)C(C)(C)C)CN(C)[C@@H]1Cc1c[nH]c3cccc2c13 [Example 12, 1,3-di-t-butyl-3-(10'αmethoxy-6'-methylergoline-8'β-carbonyl)-urea]",Change in HR,[1]; [12],-10 beats/minute
same,Change in HR,[1]; [13],-10 beats/minute
same,Change in HR,[1]; [14],-20 beats/minute
same,Change in HR,[1]; [15],-12 beats/minute
same,Change in HR,[1]; [16],0 beats/minute
same,Change in HR,[1]; [17],-30 beats/minute
same,Change in HR,[1]; [18],+17 beats/minute
same,Change in HR,[1]; [19],-10 beats/minute
same,Change in BP,[2]; [12],-17 mmHg
same,Change in BP,[2]; [13],-17 mmHg
same,Change in BP,[2]; [14],-10 mmHg
same,Change in BP,[2]; [15],-24 mmHg
same,Tolerance on the 4th day,[2]; 10 mg/kg,tolerance does not occur
same,Change in BP,[2]; [16],-26 mmHg
same,Change in BP,[2]; [17],-37 mmHg
same,Change in BP,[2]; [18],-71 mmHg
same,Change in BP,[2]; [19],-28 mmHg
same,Hypotensive activity vs Hydralazine,"[2]; compound 10 mg/kg vs Hydralazine 5 mg/kg, 1st day",comparable activity to that of Hydralazine
same,Hypotensive activity vs Hydralazine,"[2]; compound 10 mg/kg vs Hydralazine 5 mg/kg, 4th day",greater activity on the 4th day
same,Effect on BP (in words),[2]; [11],reduced BP in a dose dependent manner
CO[C@]12C[C@@H](C(=O)N(C(=O)NC(C)(C)C)C(C)(C)C)CN(C)[C@@H]1Cc1cn(C)c3cccc2c13 [Example 17],Change in HR,[1]; [20],-2 beats/minute
same,Change in HR,[1]; [21],+3 beats/minute
same,Change in HR,[1]; [22],-4 beats/minute
same,Change in HR,[1]; [23],-8 beats/minute
same,Change in HR,[1]; [7],-20 beats/minute
same,Change in HR,[1]; [8],-23 beats/minute
same,Change in HR,[1]; [9],-27 beats/minute
same,Change in HR,[1]; [10],-22 beats/minute
same,Change in HR,[1]; [16],+15 beats/minute
same,Change in HR,[1]; [17],-13 beats/minute
same,Change in HR,[1]; [18],-2 beats/minute
same,Change in HR,[1]; [19],+6 beats/minute
same,Effect on BP (in words),[2]; 0.1 mg/kg b.w.,No effect
same,Change in BP,[2]; [20],-5 mmHg
same,Change in BP,[2]; [21],-7 mmHg
same,Change in BP,[2]; [22],-4 mmHg
same,Change in BP,[2]; [23],-10 mmHg
same,Change in BP,[2]; [7],-20 mmHg
same,Change in BP,[2]; [8],-19 mmHg
same,Change in BP,[2]; [9],-43 mmHg
same,Change in BP,[2]; [10],-66 mmHg
same,Effect on BP (in words),"[2]; 10 mg/kg b.w., 1st and 4th day",dose related as well as very marked
same,Change in BP,[2]; [17],-60 mmHg
same,Change in BP,[2]; [18],-59 mmHg
same,Change in BP,[2]; [19],-93 mmHg
same,Hypotensive activity vs Hydralazine,"[2]; compound 1 mg/kg vs Hydralazine 5 mg/kg, 4th day",much more remarkable
same,Hypotensive activity vs Hydralazine,"[2]; compound 1 mg/kg vs Hydralazine 5 mg/kg, first day",comparable to that of Hydralazine
same,Hypotensive effect vs Hydralazine,"[2]; compound 10 mg/kg b.w., 1st and 4th days",hypotensive effect larger than Hydralazine
"CN1C[C@H](C(=O)N(C(=O)NC(C)(C)C)C(C)(C)C)C[C@@H]2c3cccc4c3c(cn4C)C[C@H]21 [Example 18, 1,3-di-tert-butyl-3-(1',6'-dimethylergoline-8'β-carbonyl)urea]",Change in HR,[1]; [7],-22 beats/minute
same,Change in HR,[1]; [8],-20 beats/minute
same,Change in HR,[1]; [9],+7 beats/minute
same,Change in HR,[1]; [10],-8 beats/minute
same,Change in HR,[1]; [24],-10 beats/minute
same,Change in HR,[1]; [25],-15 beats/minute
same,Change in HR,[1]; [26],+2 beats/minute
same,Change in HR,[1]; [27],+5 beats/minute
same,Change in BP,[2]; [7],-15 mmHg
same,Change in BP,[2]; [8],-10 mmHg
same,Change in BP,[2]; [9],-8 mmHg
same,Change in BP,[2]; [10],-14 mmHg
same,Effect on BP (in words),"[2]; 12.5 mg/kg b.w. (highest dose), 4th day",very remarkable on the 4th day of treatment and still lasting 5 hours after administration
same,Change in BP,[2]; [24],-19 mmHg
same,Change in BP,[2]; [25],-19 mmHg
same,Change in BP,[2]; [26],-38 mmHg
same,Change in BP,[2]; [27],-47 mmHg
same,Hypotensive activity vs Hydralazine,"[2]; compound 12.5 mg/kg vs Hydralazine 5 mg/kg, 4th day",much more remarkable
same,Hypotensive activity vs Hydralazine,"[2]; compound 12.5 mg/kg vs Hydralazine 5 mg/kg, first day",comparable to that of Hydralazine
same,Effect on BP (in words),[2]; [11],reduced BP with both the tested doses (12.5 and 1 mg/kg b.w.); this effect was dose dependent
"C=CCN1C[C@H](C(=O)N(CC)C(=O)NCCCN(C)C)C[C@@H]2c3cccc4[nH]cc(c34)C[C@H]21 [Example 20, 1-(3'-dimethylaminopropyl)-3-ethyl-3-(6'-allylergoline-8'β-carbonyl)-urea]",ED50,prolactin secretion,0.27 mg/kg
"C=CCN1C[C@H](C(=O)N(C)C(=O)NC)C[C@@H]2c3cccc4[nH]cc(c34)C[C@H]21 [Example 24, 1,3-Dimethyl-3-(6'-allylergoline-8'β-carbonyl)-urea]",ED50,prolactin secretion,0.5 mg/kg
"NNc1nncc2ccccc12 [Hydralazine, reference compound]",Change in HR,[1]; [7],+30 beats/minute
same,Change in HR,[1]; [8],+35 beats/minute
same,Change in HR,[1]; [9],+25 beats/minute
same,Change in HR,[1]; [10],+15 beats/minute
same,Change in HR,[1]; [28],+40 beats/minute
same,Change in HR,[1]; [29],+45 beats/minute
same,Change in HR,[1]; [30],+18 beats/minute
same,Change in HR,[1]; [31],+15 beats/minute
same,Effect on HR (in words),"[1]; SHR rats, os",increase of HR
same,Change in BP,[2]; [7],-5 mmHg
same,Change in BP,[2]; [8],-15 mmHg
same,Change in BP,[2]; [9],-5 mmHg
same,Change in BP,[2]; [10],0 mmHg
same,Change in BP,[2]; [28],-40 mmHg
same,Change in BP,[2]; [29],-20 mmHg
same,Change in BP,[2]; [30],-20 mmHg
same,Change in BP,[2]; [31],-7 mmHg
